From PubChem BioAssay (NCI)
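Five concentrations, 48 hours, 96-well plates. Here, GI50 denotes the concentration required for 50% inhibition of growth. TGI: concentration producing complete growth inhibition.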

What was measured:
Assay in all cases: DTP human tumour cell line panel, 48 h
[1] = tested on: CCRF-CEM leukemia
[2] = tested on: COLO 205 colon
[3] = tested on: K-562 leukemia
[4] = tested on: KM12 colon
[5] = tested on: NCI-H522 lung
[6] = tested on: RPMI-8226 leukemia
[7] = tested on: SK-OV-3 ovarian
[8] = tested on: TK-10 renal
[9] = tested on: UACC-62 melanoma
[10] = tested on: UO-31 renal

| Structure (SMILES) | TGI [1] [µM] | TGI [2] [µM] | TGI [3] [µM] | TGI [4] [µM] | TGI [5] [µM] | TGI [6] [µM] | TGI [7] [µM] | TGI [8] [µM] | TGI [9] [µM] | TGI [10] [µM] | GI50 [1] [µM] | GI50 [2] [µM] | GI50 [3] [µM] | GI50 [4] [µM] | GI50 [5] [µM] | GI50 [6] [µM] | GI50 [7] [µM] | GI50 [8] [µM] | GI50 [9] [µM] | GI50 [10] [µM] |
| --- | --- | --- | --- | --- | --- | --- | --- | --- | --- | --- | --- | --- | --- | --- | --- | --- | --- | --- | --- | --- |
| CCCCCCC(=O)CC(=O)C(=O)Nc1ccccc1C | > 100 | > 100 | > 100 | > 100 | > 100 | > 100 | > 100 | > 100 | > 100 | > 100 |  |  |  |  |  |  |  |  |  |  |
| Nc1ncnc2c1ncn2COC/C=C/I | > 100 | > 100 | > 100 | > 100 | > 100 | > 100 | > 100 | > 100 | > 100 | > 100 |  |  |  |  |  |  |  |  |  |  |
| CCCCCCCCCCCCCCCC(N)c1ccccc1 (centres undefined) | 4.33 | 3.14 | 4.2 | 3.29 | 3.21 | 4.66 | 2.92 | 3.1 | 3.21 | 2.97 | 1.98 | 1.68 | 1.89 | 1.77 | 1.62 | 2.09 | 1.58 | 1.61 | 1.66 | 1.49 |
| COc1cc2c3c(n(CCCN4CCN(CCO)CC4)c(=O)c2cc1OC)-c1cc2c(cc1C3=O)OCO2 | 1.8 | > 57.2 | 29.4 | 22.7 | > 51.2 | 3.91 | > 78.9 | 37 | > 33.9 | > 100 | 0.203 | 15.1 | 5.95 | 9.33 | > 33 | 0.559 | 21.1 | 15.5 |  | > 91.5 |
| NCCNc1ncnc2ccc(Cl)cc12 | > 100 | > 100 | > 100 | > 100 | > 100 | > 100 | > 100 | > 100 | > 100 | > 100 |  |  |  |  |  |  |  |  |  |  |
| Nc1ncnc2c1ncn2C1OC(C(=O)OCCO)C(O)C1O (centres undefined) | > 100 | > 100 | > 100 | > 100 | > 100 | > 100 | > 100 | > 100 | > 100 | > 100 |  |  |  |  |  |  |  |  |  |  |
| COC(=O)C1=C(O)C(C(=O)OC)[C@@]2(O)[C@@H](C(=O)OC)C(c3ccccc3Cl)C[C@@H]1[C@@H]2C(=O)OC (some centres undefined) | 5.12 | 31.5 | > 100 | 21.2 | 12.8 | 6.2 | 63.4 | 25.4 | 6.89 | 19.8 | 1.64 | 14.1 | 3.76 | 6.5 | 3.16 | 1.88 | 23.6 | 10.3 | 2.53 | 6.14 |
| CC1SC(c2cccc(Cl)c2)N(NC(=O)C(O)c2ccccc2)C1=O (centres undefined) | > 100 | > 100 | > 100 | > 100 | > 100 | > 100 | > 100 | > 100 | > 100 | > 100 | > 100 | > 100 | 69.4 | > 100 | > 100 | 43.2 | > 100 | > 100 | 39 | > 100 |
| CC(=O)Nc1ccc(OCC(O)CO)cc1 (centres undefined) | > 100 | > 100 | > 100 | > 100 | > 100 | 43.9 | > 100 | > 100 | > 100 | > 100 |  |  |  |  |  |  |  |  |  |  |
| COc1ccc([Se]c2ccc(OC)cc2)cc1 | > 100 | > 100 | > 100 | > 100 | > 100 | > 100 | > 100 | > 100 | > 100 | 9.8 |  |  |  |  |  |  |  |  |  |  |
| CN1C(=O)C(C)(C)Oc2c(-c3cn(C)c(=O)c4[nH]ccc34)cc(S(C)(=O)=O)cc21 | > 100 | 10.5 | > 100 | 16.1 | 5 | 4.94 | 7.04 | 14.6 | 11.8 | > 100 | 1.45 | 0.469 | 0.765 | 1.44 | 0.383 | 0.243 | 0.705 | 0.495 | 0.39 | 0.431 |
| CC1=C(C(=O)NCc2ccccc2)C(c2ccccc2O)C(C(=O)NCc2ccccc2)=C(C)N1 | 82.9 | 30.9 | 88.9 | 31.5 | 31.4 | > 100 | 64.9 | 34 | 34 | 30.5 |  |  |  |  |  |  |  |  |  |  |
| CCOc1cc[n+](C(=C=[N-])C#N)cc1 | > 100 | > 100 | > 100 | > 100 | > 100 | > 100 | > 100 | > 100 | > 100 | > 100 |  |  |  |  |  |  |  |  |  |  |
| Nc1cc(N)c2nc(-c3ccccc3)c(Oc3ccc(Cl)c(Cl)c3)nc2c1 | > 100 | 67.8 | > 100 | 39.8 | 33.7 | > 100 | 65.9 | 38 | 48.2 | 60.7 | 2.98 | 20.6 | 3.55 | 6.38 | 8.34 | 3.51 | 23.9 | 17.6 | 16.3 | 13.3 |
| C[C@H](c1ccc(Cl)cc1[N+](=O)[O-])N1C(=O)c2cc(I)ccc2NC(=O)[C@H]1c1ccc(Cl)cc1 | > 100 | > 100 | > 100 | > 100 | > 100 | > 100 | > 100 | > 100 | > 100 | > 100 | > 100 | > 100 | 77 | > 100 | 8.94 | > 100 | > 100 | > 100 | > 100 | 2.54 |
| CC(=O)N1c2ccc(-c3ccc(C(=O)O)cc3)cc2[C@H](Nc2ccc(Cl)cc2)C[C@@H]1C | 30.3 | 12.8 | > 55.2 | 20.2 | 11.5 | 18.6 | 22.5 | 17.9 | 11.5 | 13 | 1.63 | 0.0615 | 0.168 | 0.924 | 0.0637 | 0.0615 | 0.138 | 0.0569 | 0.0261 | < 0.0251 |
